Source: ChEMBL document CHEMBL5506041, “Identification of 1,3,4-Thiadiazolyl-Containing Thiazolidine-2,4-dione Derivatives as Novel PTP1B Inhibitors with Antidiabetic Activity” (J Med Chem, 2024)
Calls of active or inactive are those of the source. The calls are words filed in the database; no cut-off is given here.

Tests used:
[1] = biological target: T1, Tyrosine-protein phosphatase non-receptor type 1 (Homo sapiens, UniProt P18031); assay: Inhibition of PTP1B (unknown origin) using DiFMUP as substrate incubated for 10 mins by fluorescence based analysis
T1 sequence (P18031 whole entry): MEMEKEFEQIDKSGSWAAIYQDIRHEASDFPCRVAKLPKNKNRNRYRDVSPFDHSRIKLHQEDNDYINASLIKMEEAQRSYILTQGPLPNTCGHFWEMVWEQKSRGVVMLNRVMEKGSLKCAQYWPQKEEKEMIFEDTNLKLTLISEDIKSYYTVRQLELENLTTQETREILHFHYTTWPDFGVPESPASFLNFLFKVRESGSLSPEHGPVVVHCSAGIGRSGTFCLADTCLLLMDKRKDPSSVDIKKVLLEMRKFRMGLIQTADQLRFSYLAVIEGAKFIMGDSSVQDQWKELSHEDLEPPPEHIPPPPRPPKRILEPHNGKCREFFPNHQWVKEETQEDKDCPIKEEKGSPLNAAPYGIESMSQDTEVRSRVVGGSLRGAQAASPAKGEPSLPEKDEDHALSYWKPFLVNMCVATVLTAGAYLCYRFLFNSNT

[2] = biological target: T2, Tyrosine-protein phosphatase non-receptor type 1 (Homo sapiens) (UniProt P18031); assay: Reversible inhibition of PTP1B1 (unknown origin) upto 1 uM by Lineweaver-burk plot analysis
T2 sequence (whole entry): T1 sequence (P18031 whole entry)

HepG2 [3] = assay: Inhibition of insulin resistance in palmitic acid-induced human HepG2 cells assessed as upregulation of AKT expression incubated for 24 hrs followed by insulin addition for 10 mins; type: functional, cell-based; details: dose 2-20 µM
Mus musculus [4] = assay: Anti-diabetic activity in streptozotocin-induced C57/6J mouse model assessed as reduction in triglyceride level in serum at 25 to 50 mg/kg, ip administered for 4 weeks; type: functional, organism-based; details: dose 25-50 mg/kg
HEK293 = assay: Cytotoxicity activity against HEK293 cells upto 32 uM by MTT assay; type: toxicity, cell-based; details: human, hek293, 32 µM
Mus musculus [5] = assay: Anti-diabetic activity in streptozotocin-induced C57/6J mouse model assessed as reduction in fasted blood glucose level at 50 mg/kg, ip preadministered with compound for 3 weeks followed by fasting for 12 hrs and measured after 120 mins post glucose administration by OGTT analysis; type: functional, organism-based; details: time 518.0 hrs
L02 = assay: Cytotoxicity activity against human L02 cells upto 32 uM by MTT assay; type: toxicity, cell-based; details: l02, 32 µM
Mus musculus [6] = assay: Anti-diabetic activity in streptozotocin-induced C57/6J mouse model assessed as reduction in total cholesterol level in serum at 25 to 50 mg/kg, ip administered for 4 weeks; type: functional, organism-based; details: dose 25-50 mg/kg
Mus musculus [7] = assay: Hypoglycemic activity in streptozotocin-induced C57/6J mouse model assessed as reduction in fasting blood glucose level at 25 to 50 mg/kg, ip administered once a week and fasted for 12 hrs; type: functional, organism-based; details: dose 25-50 mg/kg
[8] = biological target: T2, Tyrosine-protein phosphatase non-receptor type 1 (Homo sapiens); assay: Noncompetitive inhibition of PTP1B1 (unknown origin) upto 1 uM by Lineweaver-burk plot analysis
[9] = biological target: T2, Tyrosine-protein phosphatase non-receptor type 1 (Homo sapiens); assay: Potency index, ratio of lithocholic acid IC50 to test compound IC50 for inhibition of PTP1B (unknown origin) using DiFMUP as substrate incubated for 10 mins by fluorescence based analysis
HepG2 [10] = assay: Inhibition of insulin resistance in palmitic acid-induced human HepG2 cells assessed as upregulation of IRS1 expression incubated for 24 hrs followed by insulin addition for 10 mins; type: functional, cell-based; details: dose 2-20 µM
Mus musculus [11] = assay: Hypoglycemic activity in streptozotocin-induced C57/6J mouse model assessed as reduction in fasting blood glucose level at 50 mg/kg, ip administered once a week and fasted for 12 hrs; type: functional, organism-based

| SMILES | IC50 [1] [nM] | other results |
| --- | --- | --- |
| O=C1NC(=O)/C(=C\c2ccc(C(=O)Nc3nnc(SCc4cccc(Br)c4)s3)cc2)S1 | 890 |  |
| O=C1NC(=O)/C(=C/c2ccc(C(=O)Nc3nnc(SCc4cc(C(F)(F)F)cc(C(F)(F)F)c4)s3)cc2)S1 | 1730 |  |
| O=C1NC(=O)/C(=C\c2ccc(C(=O)Nc3nnc(SCc4ccccc4-c4ccccc4)s3)cc2)S1 | 3560 |  |
| O=C1NC(=O)/C(=C/c2ccc(C(=O)Nc3nnc(SCc4ccc5ccccc5c4)s3)cc2)S1 | 3770 |  |
| Cc1cccc(CSc2nnc(NC(=O)c3ccc(/C=C4/SC(=O)NC4=O)cc3)s2)c1 | 3850 |  |
| O=C1NC(=O)/C(=C\c2ccc(C(=O)Nc3nnc(SCc4ccc(OC(F)(F)F)cc4)s3)cc2)S1 | 890 |  |
| O=C1NC(=O)/C(=C/c2ccc(C(=O)Nc3nnc(SCc4ccc(F)c(F)c4F)s3)cc2)S1 | 1130 |  |
| O=C1NC(=O)/C(=C\c2ccc(C(=O)Nc3nnc(SCc4ccc(F)cc4)s3)cc2)S1 | 1840 |  |
| CS(=O)(=O)c1ccc(CSc2nnc(NC(=O)c3ccc(/C=C4\SC(=O)NC4=O)cc3)s2)cc1 | 1410 |  |
| O=C1NC(=O)/C(=C\c2ccc(C(=O)Nc3nnc(SCc4ccc(Cl)cc4)s3)cc2)S1 | 1390 |  |
| N#Cc1ccccc1CSc1nnc(NC(=O)c2ccc(/C=C3/SC(=O)NC3=O)cc2)s1 | 2170 |  |
| O=C1NC(=O)/C(=C\c2ccc(C(=O)Nc3nnc(SCc4ccccc4OC(F)(F)F)s3)cc2)S1 | 1320 |  |
| O=C1NC(=O)/C(=C/c2ccc(C(=O)Nc3nnc(SCc4ccc(-c5ccccc5)cc4)s3)cc2)S1 | 1470 |  |
| O=C1NC(=O)/C(=C\c2ccc(C(=O)Nc3nnc(SCc4cccc(C(F)(F)F)c4)s3)cc2)S1 | 1070 |  |
| O=C1NC(=O)/C(=C/c2ccc(C(=O)Nc3nnc(SCc4ccc(F)c(F)c4)s3)cc2)S1 | 750 |  |
| Cc1ccc(CSc2nnc(NC(=O)c3ccc(/C=C4/SC(=O)NC4=O)cc3)s2)cc1 | 880 |  |
| O=C1NC(=O)/C(=C/c2ccc(C(=O)Nc3nnc(SCc4ccc(F)c(Cl)c4)s3)cc2)S1 | 820 |  |
| O=C1NC(=O)/C(=C/c2ccc(C(=O)Nc3nnc(SCc4ccc(F)cc4Cl)s3)cc2)S1 | 1070 |  |
| Cc1ccccc1CSc1nnc(NC(=O)c2ccc(/C=C3/SC(=O)NC3=O)cc2)s1 | 4680 |  |
| O=C1NC(=O)/C(=C\c2ccc(C(=O)Nc3nnc(SCc4ccc([N+](=O)[O-])cc4)s3)cc2)S1 | 1820 |  |
| C[C@H](CCC(=O)O)[C@H]1CC[C@H]2[C@@H]3CC[C@@H]4C[C@H](O)CC[C@]4(C)[C@H]3CC[C@]12C [LITHOCHOLIC ACID] | 9620 |  |
| O=C1NC(=O)/C(=C/c2ccc(C(=O)Nc3nnc(SCc4ccc(C(F)(F)F)cc4)s3)cc2)S1 | 910 |  |

| SMILES | IC50 [1] [nM] | other results |
| --- | --- | --- |
| O=C1NC(=O)/C(=C\c2ccc(C(=O)Nc3nnc(SCc4cccc(Cl)c4)s3)cc2)S1 | 1640 |  |
| O=C1NC(=O)/C(=C\c2ccc(C(=O)Nc3nnc(SCc4ccccc4)s3)cc2)S1 | 1270 |  |
| O=C1NC(=O)/C(=C/c2ccc(C(=O)Nc3nnc(SCc4ccc(F)cc4F)s3)cc2)S1 | 1240 |  |
| O=C1NC(=O)/C(=C/c2ccc(C(=O)Nc3nnc(SCc4ccc5ncccc5c4)s3)cc2)S1 | 980 |  |
| O=C1NC(=O)/C(=C\c2ccc(C(=O)Nc3nnc(SCc4ccccc4Cl)s3)cc2)S1 | 2910 |  |
| COC(=O)c1ccccc1CSc1nnc(NC(=O)c2ccc(/C=C3/SC(=O)NC3=O)cc2)s1 | 1210 |  |
| O=C1NC(=O)/C(=C\c2ccc(C(=O)Nc3nnc(SCc4cccc(OC(F)(F)F)c4)s3)cc2)S1 | 1480 |  |
| O=C1NC(=O)/C(=C\c2ccc(C(=O)Nc3nnc(SCc4ccccc4C(F)(F)F)s3)cc2)S1 | 1180 |  |
| O=C1NC(=O)/C(=C\c2ccc(C(=O)Nc3nnc(SCc4ccccc4F)s3)cc2)S1 | 1850 |  |
| N#Cc1cccc(CSc2nnc(NC(=O)c3ccc(/C=C4/SC(=O)NC4=O)cc3)s2)c1 | 610 |  |
| O=C1NC(=O)/C(=C\c2ccc(C(=O)Nc3nnc(SCc4ccccc4[N+](=O)[O-])s3)cc2)S1 | 4090 |  |
| O=C1NC(=O)/C(=C\c2ccc(C(=O)Nc3nnc(SCc4cccc([N+](=O)[O-])c4)s3)cc2)S1 | 3760 |  |
| COC(=O)c1ccc(CSc2nnc(NC(=O)c3ccc(/C=C4/SC(=O)NC4=O)cc3)s2)cc1 | 650 |  |
| O=C1NC(=O)/C(=C\c2ccc(C(=O)Nc3nnc(SCc4ccc(Br)cc4)s3)cc2)S1 | 590 |  |
| N#Cc1ccc(CSc2nnc(NC(=O)c3ccc(/C=C4/SC(=O)NC4=O)cc3)s2)cc1 | 410 | inhibition [2]: Active; inhibition (HepG2 [3]): Dose-Dependent Effect; Activity (Mus musculus [4]): Active; Activity (HEK293): Non-Toxic; Activity (Mus musculus [5]): Active; Activity (L02): Non-Toxic; Activity (Mus musculus [6]): Active; Activity (Mus musculus [7]): Active; inhibition [8]: Active; Ratio IC50 [9]: 23.5; inhibition (HepG2 [10]): Dose-Dependent Effect |
| COC(=O)c1cccc(CSc2nnc(NC(=O)c3ccc(/C=C4/SC(=O)NC4=O)cc3)s2)c1 | 1120 |  |
| O=C1NC(=O)/C(=C\c2ccc(C(=O)Nc3nnc(SCc4ccccc4Br)s3)cc2)S1 | 1870 |  |
| O=C1NC(=O)/C(=C\c2ccc(C(=O)Nc3nnc(SCc4cccc(F)c4)s3)cc2)S1 | 2080 |  |
| COc1cccc(CSc2nnc(NC(=O)c3ccc(/C=C4/SC(=O)NC4=O)cc3)s2)c1 | 3220 |  |
| CC(C)(C)c1ccc(CSc2nnc(NC(=O)c3ccc(/C=C4\SC(=O)NC4=O)cc3)s2)cc1 | 1350 |  |
| C[C@H]1O[C@H](O[C@H]2[C@H](O)[C@@H](O)[C@@H](O[C@H]3[C@H](O)[C@@H](O)C(O)O[C@@H]3CO)O[C@@H]2CO)[C@H](O)[C@@H](O)[C@@H]1N[C@H]1C=C(CO)[C@@H](O)[C@H](O)[C@H]1O (some centres undefined) |  | Activity (Mus musculus [11]): Active |
